Results as given in PMC11784839, “Monoaminergic neurotransmitters are bimodal effectors of tau aggregation” (Science Advances, 2025).

Target: tau (Homo sapiens, UniProt P10636)
Assay: MCE Phenols Library screening, tau biosensor cell seeding assay (AvZ)
Assay type: cell-based
Conditions: for AvZ (average z score of seeding, SDs from the mean level of seeding): 10 μM phenol in cell cultures, AD brain homogenate preincubated 16 hours, two biological replicates, positive = catalyzes seeding, negative = inhibits; for Z repl 1 / Z Repl 2: Z score; for Z repl 1 / raw data 1: replicate 1; for Z Repl 2 / raw data 2: replicate 2; for av Z: average Z score of the two replicates
[1] = average puncta of the two replicates

Chain of tau (P10636 623-695 limits assumed): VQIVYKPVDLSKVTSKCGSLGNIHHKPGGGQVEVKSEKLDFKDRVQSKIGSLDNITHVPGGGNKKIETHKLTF

Compound	AvZ (average z score of seeding, SDs from the mean level of seeding)	Z repl 1	Z Repl 2	av puncta (average of raw data 1 and 2)	raw data 1 (puncta)	raw data 2 (puncta)	av Z (MCE Phenols Library screen)	av puncta [1]	raw data 1 (raw puncta)	raw data 2 (raw puncta)	av Z (tau seeding)	av Z (tau biosensor seeding, MCE Phenols Library screen)
C=CCc1ccc(O)c(O)c1 [4-Allylcatechol]	-0.761	-0.394	-1.127	11173.7	21621.8	725.499	–	–	–	–	–	–
CCc1ccc(O)cc1O [4-Ethylresorcinol]	-1.119	-1.505	-0.734	6604.27	8283.51	4925.02	–	–	–	–	–	–
COc1cc(/C=C/C(=O)O[C@H]2[C@H](O)C[C@](O)(C(=O)O)C[C@H]2O)ccc1O [4-Feruloylquinic acid]	–	-1.622	-0.646	6372.47	6875.06	5869.87	-1.134	–	–	–	–	–
O=Cc1c[nH]c2cccc(O)c12 [4-Hydroxy-1H-indole-3-carbaldehyde]	0.212	0.51	-0.086	22163.8	32475.1	11852.6	–	–	–	–	–	–
O=C(O)c1ccc(O)cc1 [4-Hydroxybenzoic acid]	-0.554	-0.323	-0.785	–	22475.3	4386.59	–	13431	–	–	–	–
N#CCc1ccc(O)cc1 [4-Hydroxybenzyl cyanide]	-0.064	0.423	-0.552	19148.8	31425.1	6872.51	–	–	–	–	–	–
NCc1ccc(O)cc1 [4-Hydroxybenzylamine]	-0.572	-0.693	-0.451	–	18024.8	7945.11	–	12984.9	–	–	–	–
O=C(/C=C/c1ccc(O)cc1)c1ccccc1 [4-Hydroxychalcone]	–	-0.784	-0.093	–	–	–	-0.439	14353.6	16932.9	11774.3	–	–
CCC1(c2ccc(O)cc2)NC(=O)N(C)C1=O (stereo not shown) [4-Hydroxymephenytoin]	–	-0.081	-0.754	–	–	–	-0.418	15044.9	25375.4	4714.28	–	–
CC(=O)OCCc1ccc(O)c(O)c1 [4-Hydroxytyrosol acetate]	-0.526	–	–	–	–	–	–	–	–	–	–	–
COc1ccc(C=O)cc1 [4-Methoxybenzaldehyde]	0.308	-0.17	0.786	22737.8	24311	21164.6	–	–	–	–	–	–
Cc1ccc(O)c(O)c1 [4-Methylcatechol]	-1.257	-1.54	-0.975	5109.52	7864.83	2354.22	–	–	–	–	–	–
Cc1cc(=O)oc2c(O)c(O)ccc12 [4-Methyldaphnetin]	–	-1.037	-0.74	9377.72	13895.3	4860.11	-0.889	–	–	–	–	–
Cc1cc(=O)oc2cc(O)c(O)cc12 [4-Methylesculetin]	–	0.302	-0.022	21252.2	29975.4	12529	–	–	–	–	0.14	–
Cc1cc(=O)oc2cc(O)ccc12 [4-Methylumbelliferone]	–	-0.898	-0.379	–	15562.7	8717.47	-0.639	12140.1	–	–	–	–
CC(=O)c1ccc(O)cc1C [4?-Hydroxy-2?-methylacetophenone]	0.123	0.511	-0.266	21207.9	32488.1	9927.81	–	–	–	–	–	–
Oc1cc2cc[nH]c2cc1O [5,6-Dihydroxyindole]	-0.59	-0.206	-0.973	–	23871.3	2376.21	–	13123.8	–	–	–	–
Cc1cc(=O)oc2cc(O)cc(O)c12 [5,7-Dihydroxy-4-methylcoumarin]	–	0.623	-0.301	21685.4	33822.8	9548.03	–	–	–	–	0.161	–
O=c1ccoc2cc(O)cc(O)c12 [5,7-Dihydroxychromone]	–	-1.184	-0.309	–	12131.6	9469.43	-0.746	10800.5	–	–	–	–
COc1cc(OC)c2c(=O)cc(-c3ccc(O)c(O)c3)oc2c1 [5,7-Dimethoxyluteolin]	–	1.798	1.915	40573.2	47932.5	33213.9	–	–	–	–	–	1.856
Nc1ccc(O)c(C(=O)O)c1 [5-Aminosalicylic Acid, reference compound]	-0.176	-0.552	0.2	17310.9	19721.7	14900.2	–	–	–	–	–	–
